Measured values reported in ChEMBL document CHEMBL1275542, “Characterization of TolC efflux pump proteins from Pasteurella multocida” (2008).
≈ marks a conversion by molar mass, not a printed value.

Tests used:
Type in all cases: functional
Pasteurella multocida [1] = assay: Antibacterial activity against Pasteurella multocida AL435 after 24 hrs by broth dilution method
Pasteurella multocida [2] = assay: Antibacterial activity against TolC deficient Pasteurella multocida pm0527 after 24 hrs by broth dilution method
Pasteurella multocida [3] = assay: Antibacterial activity against Pasteurella multocida pm0527 after 24 hrs by broth dilution method
Pasteurella multocida [4] = assay: Ratio of MIC for Pasteurella multocida AL435 to MIC for TolC deficient Pasteurella multocida pm0527
Pasteurella multocida [5] = assay: Antibacterial activity against TolC deficient Pasteurella multocida pm1980 after 24 hrs by broth dilution method
Pasteurella multocida [6] = assay: Antibacterial activity against Pasteurella multocida pm1980 after 24 hrs by broth dilution method
Pasteurella multocida [7] = assay: Ratio of MIC for Pasteurella multocida AL435 to MIC for TolC deficient Pasteurella multocida pm1980

Molecule | MIC (Pasteurella multocida [1]; AL435, 24 h) [µg/mL] | MIC (Pasteurella multocida [2]; pm0527, 24 h) [µg/mL] | MIC (Pasteurella multocida [3]; pm0527, 24 h) [µg/mL] | Ratio (Pasteurella multocida [4]) | MIC (Pasteurella multocida [5]; pm1980, 24 h) [µg/mL] | MIC (Pasteurella multocida [6]; pm1980, 24 h) [µg/mL] | Ratio (Pasteurella multocida [7]) | MIC (Pasteurella multocida [1]) [µg/mL] | MIC (Pasteurella multocida [2]) [µg/mL] | MIC (Pasteurella multocida [3]) [µg/mL] | MIC (Pasteurella multocida [5]) [µg/mL] | MIC (Pasteurella multocida [6]) [µg/mL]
CCn1cc(C(=O)O)c(=O)c2ccc(C)nc21 [NALIDIXIC ACID] | 25 (≈ 108 µM) | 25 (≈ 108 µM) | 25 (≈ 108 µM) | 1 | 25 (≈ 108 µM) | 12.5 (≈ 53.8 µM) | 1 |  |  |  |  | 
O=P1(N(CCCl)CCCl)NCCCO1 (configuration not stated) [CYCLOPHOSPHAMIDE ANHYDROUS] | 4000 (≈ 15300 µM) | 4000 (≈ 15300 µM) | 2000 (≈ 7660 µM) | 1 | 2000 (≈ 7660 µM) | 2000 (≈ 7660 µM) | 2 |  |  |  |  | 
CN(C)c1ccc2cc3ccc(N(C)C)cc3nc2c1 [ACRIDINE ORANGE] | 30 (≈ 113 µM) | 0.234 (≈ 0.882 µM) | 15 (≈ 56.5 µM) | 128 | 30 (≈ 113 µM) | 30 (≈ 113 µM) | 1 |  |  |  |  | 
CN(C)c1ccc(C(=C2C=CC(=[N+](C)C)C=C2)c2ccc(N(C)C)cc2)cc1.[Cl-] [GENTIAN VIOLET] | 12.5 | 3.12 | 6.25 | 4 | 12.5 | 12.5 | 1 |  |  |  |  | 
CC(C)(O/N=C(\C(=O)N[C@@H]1C(=O)N2C(C(=O)[O-])=C(C[n+]3ccccc3)CS[C@H]12)c1csc(N)n1)C(=O)O [CEFTAZIDIME] | 250 (≈ 457 µM) | 15.6 (≈ 28.5 µM) | 7.8 (≈ 14.3 µM) | 16 | 31.2 (≈ 57.1 µM) | 31.2 (≈ 57.1 µM) | 8 |  |  |  |  | 
CC[n+]1c(-c2ccccc2)c2cc(N)ccc2c2ccc(N)cc21.[Br-] [HOMIDIUM BROMIDE] | 20 | 5 | 10 | 4 | 10 | 10 | 2 |  |  |  |  | 
POLYMYXIN B |  |  |  | 4 |  |  | 1 | 12.5 | 3.12 | 6.25 | 12.5 | 6.25
C[C@H](CCC(=O)O)[C@H]1CC[C@H]2[C@@H]3CC[C@@H]4C[C@H](O)CC[C@]4(C)[C@H]3C[C@H](O)[C@]12C [DEOXYCHOLIC ACID] | 625 (≈ 1590 µM) | 625 (≈ 1590 µM) | 312 (≈ 796 µM) | 1 | 625 (≈ 1590 µM) | 625 (≈ 1590 µM) | 1 |  |  |  |  | 
CCC[C@@H]1C[C@@H](C(=O)N[C@@H]([C@H]2O[C@H](SC)[C@H](O)[C@@H](O)[C@H]2O)[C@@H](C)O)N(C)C1 [LINCOMYCIN] | 100 (≈ 246 µM) | 25 (≈ 61.5 µM) | 25 (≈ 61.5 µM) | 4 | 100 (≈ 246 µM) | 50 (≈ 123 µM) | 1 |  |  |  |  | 
COc1cc(Cc2cnc(N)nc2N)cc(OC)c1OC [TRIMETHOPRIM] | 8 (≈ 27.6 µM) | 0.25 (≈ 0.861 µM) | 0.5 (≈ 1.72 µM) | 32 | 2 (≈ 6.89 µM) | 1 (≈ 3.44 µM) | 4 |  |  |  |  | 
CN[C@H](CC(C)C)C(=O)N[C@H]1C(=O)N[C@@H](CC(N)=O)C(=O)N[C@H]2C(=O)N[C@H]3C(=O)N[C@H](C(=O)N[C@H](C(=O)O)c4cc(O)cc(O)c4-c4cc3ccc4O)[C@H](O)c3ccc(c(Cl)c3)Oc3cc2cc(c3O[C@@H]2O[C@H](CO)[C@@H](O)[C@H](O)[C@H]2O[C@H]2C[C@](C)(N)[C@H](O)[C@H](C)O2)Oc2ccc(cc2Cl)[C@H]1O [VANCOMYCIN] | 1000 (≈ 690 µM) | 125 (≈ 86.3 µM) | 250 (≈ 173 µM) | 8 | 250 (≈ 173 µM) | 250 (≈ 173 µM) | 4 |  |  |  |  | 
